One assay concerns the target T1, 5-HT2A receptors (Rattus norvegicus, UniProt P14842).
T1 construct: the tissue used is the frontal cortex of the rat; from tissue; host or cells: rat frontal cortex
Nature of the assay: In vitro binding affinity for 5-HT2A receptor (3H-ketanserin radioligand binding). Particulars: frontal cortex of the rat, read-out: 5-HT2A (pIC50) (converted). The method, then: The interaction of the compounds of Formula (I) with 5-HT2A and 5-HT2C receptors was assessed in in vitro radioligand binding experiments. […] During the incubation, the radioligands bind to the receptor. When equilibrium of binding is reached, the receptor bound radioactivity is separated from the non-bound radioactivity, and the receptor bound activity is counted. The interaction of the test compounds with the receptors is assessed in competition binding experiments. Various concentrations of the test compound are added to the incubation mixture containing the tissue preparation and the radioligand. Binding of the radioligand will be inhibited by the test compound in proportion to its binding affinity and its concentration. The radioligand used for 5-HT2A binding affinity is ^3H-ketanserin and the tissue used is the frontal cortex of the rat. The radioligand used for 5-HT2c binding affinity is ^3H-mesulergine and the tissue used is the choroid plexus of the pig.

Another assay addresses T2, 5-HT2C receptors (Sus scrofa, UniProt K7GSR7).
T2 construct: the tissue used is the choroid plexus of the pig; from tissue; host or cells: pig choroid plexus
T2 sequence (K7GSR7 1-457): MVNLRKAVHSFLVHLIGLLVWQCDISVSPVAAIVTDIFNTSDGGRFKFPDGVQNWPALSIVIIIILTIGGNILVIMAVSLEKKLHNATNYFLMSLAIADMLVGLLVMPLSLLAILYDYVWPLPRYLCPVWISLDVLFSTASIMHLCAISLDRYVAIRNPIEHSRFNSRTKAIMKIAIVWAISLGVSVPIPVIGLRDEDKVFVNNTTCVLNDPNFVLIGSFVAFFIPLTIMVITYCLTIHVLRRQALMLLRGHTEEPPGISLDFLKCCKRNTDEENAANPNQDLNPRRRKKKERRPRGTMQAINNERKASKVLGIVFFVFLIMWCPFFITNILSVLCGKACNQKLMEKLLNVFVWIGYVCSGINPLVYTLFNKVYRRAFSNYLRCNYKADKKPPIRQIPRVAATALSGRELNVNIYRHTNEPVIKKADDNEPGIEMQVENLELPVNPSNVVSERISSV
Kind of assay: In vitro binding affinity for 5-HT2C receptor (3H-mesulergine radioligand binding). The note with it: choroid plexus of the pig, read-out: 5-HT2C (pIC50) (converted). Here is the method: The interaction of the compounds of Formula (I) with 5-HT2A and 5-HT2C receptors was assessed in in vitro radioligand binding experiments. In general, a low concentration of a radioligand with a high binding affinity for the receptor is incubated with a sample of a tissue preparation enriched in a particular receptor (1 to 5 mg tissue) in a buffered medium (0.2 to 5 ml). During the incubation, the radioligands bind to the receptor. When equilibrium of binding is reached, the receptor bound radioactivity is separated from the non-bound radioactivity, and the receptor bound activity is counted. The interaction of the test compounds with the receptors is assessed in competition binding experiments. Various concentrations of the test compound are added to the incubation mixture containing the tissue preparation and the radioligand. Binding of the radioligand will be inhibited by the test compound in proportion to its binding affinity and its concentration. The radioligand used for 5-HT2A binding affinity is ^3H-ketanserin and the tissue used is the frontal cortex of the rat. The radioligand used for 5-HT2c binding affinity is ^3H-mesulergine and the tissue used is the choroid plexus of the pig.

For assay [1], the target named is T3, human Dopamine D2L receptor (Homo sapiens, UniProt P14416).
T3 construct: expressed in transfected cells; host or cells: CHO cells
Kind of assay: In vitro binding affinity for human D2L receptor ([3H]Spiperone). The note with it: membranes of human D2L receptor-transfected CHO cells, read-out: D2 (pIC50) (converted). Here is the method: Frozen membranes of human Dopamine D2L receptor-transfected CHO cells were thawed, briefly homogenised using an Ultra-Turrax T25 homogeniser and diluted in Tris-HCl assay buffer containing NaCl, CaCl2, MgCl2, KCl (50, 120, 2, 1, and 5 mM respectively, adjusted to pH 7.7 with HCl) to an appropriate protein concentration optimised for specific and non-specific binding. Radioligand [^3H]Spiperone (NEN, specific activity ˜70 Ci/mmol) was diluted in assay buffer at a concentration of 2 nmol/L. Prepared radioligand (50 μl), along with 50 μl of either the 10% DMSO control, Butaclamol (10^−6 mol/l final concentration), or compound of interest, was then incubated (30 min, 37° C.) with 400 μl of the prepared membrane solution. Membrane-bound activity was filtered through a Packard Filtermate harvester onto GF/B Unifilterplates and washed with ice-cold Tris-HCl buffer (50 mM; pH 7.7; 6×0.5 ml). Filters were allowed to dry before adding scintillation fluid and counting in a Topcount scintillation counter. Percentage specific bound and competition binding curves were calculated using S-Plus software (Insightful).

The target in a further assay is T4, NET (Rattus norvegicus, UniProt Q63380).
T4 construct: Cortex from rat brain was collected and homogenised; from tissue; host or cells: rat brain cortex
Nature of the assay: In vitro determination of NET reuptake inhibition ([3H]Nixosetine binding). The note with it: rat brain cortex membranes, read-out: NET-inhibition (pIC50) (converted). The method, then:
Cortex from rat brain was collected and homogenised using an Ultra-Turrax T25 and a Dual homogeniser in ice-cold homogenising buffer containing Tris, NaCl and KCl (50 mM, 120 mM and 5 mM, respectively, pH 7.4) prior to dilution to an appropriate protein concentration optimised for specific and non-specific binding. […] Membrane-bound activity was detected by filtration through a Packard Filtermate harvester onto GF/B Unifilterplates, washed with ice-cold Tris-HCl buffer, containing NaCl and KCl (50 mM, 120 mM and 4 mM; pH 7.4; 6×0.5 ml). Filters were allowed to dry for 24 h before adding scintillation fluid. Scintillation fluid was allowed to saturate filters for 24 h before counting in a Topcount scintillation counter. Percentage specific bound and competition binding curves were calculated using S-Plus software (Insightful).

T3 sequence (P14416 whole entry): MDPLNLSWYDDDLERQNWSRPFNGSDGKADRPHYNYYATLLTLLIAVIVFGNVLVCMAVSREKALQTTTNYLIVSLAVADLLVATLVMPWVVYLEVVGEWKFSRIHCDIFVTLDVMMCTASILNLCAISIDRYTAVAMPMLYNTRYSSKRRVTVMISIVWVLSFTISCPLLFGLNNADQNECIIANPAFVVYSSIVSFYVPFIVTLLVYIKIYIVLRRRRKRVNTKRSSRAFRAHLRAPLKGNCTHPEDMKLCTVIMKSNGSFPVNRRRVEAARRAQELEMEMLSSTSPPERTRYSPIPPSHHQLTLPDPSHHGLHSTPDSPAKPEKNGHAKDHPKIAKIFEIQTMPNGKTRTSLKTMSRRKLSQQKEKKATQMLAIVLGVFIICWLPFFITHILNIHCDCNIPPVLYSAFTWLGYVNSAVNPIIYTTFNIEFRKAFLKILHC
T4 sequence (Q63380 1-617): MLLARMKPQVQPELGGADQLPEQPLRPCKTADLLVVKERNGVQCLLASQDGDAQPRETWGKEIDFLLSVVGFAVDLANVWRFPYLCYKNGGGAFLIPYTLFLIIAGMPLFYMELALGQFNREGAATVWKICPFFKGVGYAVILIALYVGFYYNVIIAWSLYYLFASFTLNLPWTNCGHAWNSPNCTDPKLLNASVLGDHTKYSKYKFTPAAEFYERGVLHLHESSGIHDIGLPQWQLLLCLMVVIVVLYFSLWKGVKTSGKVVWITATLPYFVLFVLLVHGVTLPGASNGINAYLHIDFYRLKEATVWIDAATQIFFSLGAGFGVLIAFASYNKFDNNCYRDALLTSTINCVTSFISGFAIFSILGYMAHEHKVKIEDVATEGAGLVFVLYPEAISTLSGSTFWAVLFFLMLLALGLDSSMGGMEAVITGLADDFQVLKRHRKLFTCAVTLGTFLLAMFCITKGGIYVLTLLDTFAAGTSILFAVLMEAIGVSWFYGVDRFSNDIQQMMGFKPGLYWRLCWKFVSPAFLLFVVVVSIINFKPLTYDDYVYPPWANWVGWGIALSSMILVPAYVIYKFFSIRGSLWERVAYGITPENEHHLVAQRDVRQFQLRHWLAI
T1 sequence (P14842 whole entry): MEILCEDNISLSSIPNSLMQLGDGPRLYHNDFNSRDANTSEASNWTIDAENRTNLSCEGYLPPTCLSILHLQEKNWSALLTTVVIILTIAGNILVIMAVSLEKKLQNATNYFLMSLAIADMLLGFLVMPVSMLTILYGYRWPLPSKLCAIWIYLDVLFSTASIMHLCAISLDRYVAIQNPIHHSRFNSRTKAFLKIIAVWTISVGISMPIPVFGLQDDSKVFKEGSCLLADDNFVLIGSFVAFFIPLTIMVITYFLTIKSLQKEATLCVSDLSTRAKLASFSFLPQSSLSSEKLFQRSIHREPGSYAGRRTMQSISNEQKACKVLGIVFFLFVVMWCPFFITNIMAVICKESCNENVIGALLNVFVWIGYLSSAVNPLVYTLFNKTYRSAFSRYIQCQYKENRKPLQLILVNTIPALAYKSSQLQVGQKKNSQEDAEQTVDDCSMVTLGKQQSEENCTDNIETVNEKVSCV

For `CNCC1CC2c3ccccc3Cc3sccc3C2O1` (stereo not shown) [Compound 6], the IC50 is 39.8 nM at 5-HT2A receptors, 39.8 nM at 5-HT2C receptors, 2510 nM in assay [1] and 2000 nM on NET.

Turning to `OC1CCN(C[C@H]2C[C@H]3c4ccccc4Sc4sccc4[C@@H]3O2)C1` (relative stereo) [Compound 23], the IC50 at 5-HT2A receptors is less than 10 nM; at 5-HT2C receptors, 3.98 nM; in assay [1], 251 nM; at NET, 3160 nM.

As to `c1ccc2c(c1)Sc1sccc1[C@@H]1O[C@@H](CN3CCC4(CC3)OCCO4)C[C@@H]21` (relative stereo) [Compound 13], the IC50 on 5-HT2A receptors is 5.01 nM; at 5-HT2C receptors, 100 nM; in assay [1] it was 20 nM; at NET, greater than 10000 nM.

Consider `COC(=O)c1cc2c(s1)Sc1ccccc1[C@H]1C[C@H](CN(C)C)O[C@H]21` [Compound 4], for which the IC50 was 158 nM at 5-HT2C receptors, 3980 nM in assay [1] and 631 nM on NET.

For the compound `CN(CCO)C[C@H]1C[C@@H]2c3ccccc3Sc3sccc3[C@H]2O1` (relative stereo) [Compound 18], the IC50 on 5-HT2A receptors was 39.8 nM; at 5-HT2C receptors it was 39.8 nM; at NET, 31.6 nM.

In the case of `CN(C)C[C@H]1C[C@@H]2c3ccccc3Sc3sc(CO)cc3[C@H]2O1` (racemic) [Compound 5], the figures for the IC50 (at 5-HT2C receptors; in assay [1]; at NET) were 20 nM, 200 nM and 398 nM, respectively.

As to `CNCC1CC2c3ccccc3Cc3sccc3C2O1` (stereo not shown) [Compound 8], the IC50 at 5-HT2A receptors was greater than 10000 nM; at 5-HT2C receptors, 63.1 nM; in assay [1], 3160 nM; on NET, 1000 nM.

On to `CNCC1CC2c3ccccc3Sc3sccc3C2O1` (single isomer, unassigned) [Compound 31], for which the IC50 on 5-HT2C receptors was 27.5 nM; in assay [1] it was 1260 nM; at NET, 1000 nM.

For the compound `OCCC1CCN(CC2CC3c4ccccc4Sc4sccc4C3O2)CC1` (stereo not shown) [Compound 11], the IC50 at 5-HT2A receptors was 3.16 nM; on 5-HT2C receptors, 39.8 nM; in assay [1], 6.31 nM; on NET, 7940 nM.

With `CN(C)C1CCN(C[C@H]2C[C@@H]3c4ccccc4Sc4sccc4C3O2)C1` (relative stereo) [Compound 27], the IC50 is 50.1 nM at 5-HT2C receptors, 398 nM in assay [1] and greater than 10000 nM on NET.

`CNCC1CC2c3ccccc3Cc3sccc3C2O1` (stereo not shown) [Compound 7]: the IC50 on 5-HT2A receptors was 251 nM; on 5-HT2C receptors it was 20 nM; in assay [1] it was 3160 nM; on NET, 2510 nM.

With `CN(C)C1CCN(C[C@H]2C[C@H]3c4ccccc4Sc4sccc4[C@@H]3O2)C1` (relative stereo) [Compound 29], the IC50 on 5-HT2C receptors is 251 nM; in assay [1] it was 794 nM; at NET, greater than 10000 nM.

Consider `CN(C)CC1CC2c3ccccc3Cc3sccc3C2O1` (stereo not shown) [Compound 33], for which the IC50 at 5-HT2A receptors was 100 nM; at 5-HT2C receptors, 50.1 nM; in assay [1], 794 nM; on NET, 1000 nM.

For `OCCN1CCN(C[C@H]2C[C@H]3c4ccccc4Sc4sccc4[C@@H]3O2)CC1` (relative stereo) [Compound 12], the IC50 at 5-HT2A receptors is 12.6 nM; at 5-HT2C receptors, 251 nM; in assay [1], 31.6 nM; at NET, greater than 10000 nM.

Regarding `CNCC1CC2c3ccccc3N(Cc3ccccc3)c3ncccc3C2O1` (stereo not shown) [Compound 36], the IC50 at 5-HT2C receptors was 631 nM; in assay [1], 6310 nM; on NET, 5010 nM.

Consider `CNCC1CC2c3ccccc3N(Cc3ccccc3)c3ncccc3C2O1` (mixture of isomers) [Compound 37], for which the IC50 is 100 nM at 5-HT2C receptors, 1580 nM in assay [1] and 1260 nM on NET.

In the case of `CNC[C@H]1C[C@@H]2c3ccccc3Sc3sccc3[C@H]2O1` (racemic) [Compound 32], the IC50 in assay [1] is 2000 nM; on NET, 39.8 nM.
